ChEMBL document CHEMBL1909294, “Translating clinical findings into knowledge in drug safety evaluation--drug induced liver injury prediction system (DILIps)” (PLoS Comput Biol, 2011)

Tests used:
Hepatotoxicity [1] = tested on: Hepatotoxicity;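 on HepSE Combined Scores: combined hepatic side effect score as listed in the training data of the Drug Induced Liver Injury Prediction System (DILIps)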;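 on HepSE bilirubinemia: bilirubinemia hepatic side effect score drawn from the DILIps training data, a prediction system for drug-induced liver injury; call rule not given here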;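 on HepSE cholecystitis: Cholecystitis-related hepatic side effect score drawn from the DILIps (drug-induced liver injury prediction) training data set; call rule not given here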;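 on HepSE elevated liver function tests: hepatic side effect score for raised liver function tests, as recorded in the DILIps training set used for predicting drug-induced liver injury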; on HepSE hepatic failure: call rule not given here;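 on HepSE hepatomegaly: hepatic side effect score for hepatomegaly, taken from the training set of the DILIps drug-induced liver injury prediction system; call rule not given here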;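 on HepSE liver fatty: hepatic side effect score for fatty liver, taken from the DILIps training set for predicting drug-induced liver injury; call rule not given here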
Hepatotoxicity [2] = tested on: Hepatotoxicity; remark: listed apart in the source;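 on HepSE bilirubinemia: bilirubinemia hepatic side effect score drawn from the DILIps training data, a prediction system for drug-induced liver injury; call rule not given here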;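 on HepSE cholecystitis: Cholecystitis-related hepatic side effect score drawn from the DILIps (drug-induced liver injury prediction) training data set; call rule not given here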;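 on HepSE elevated liver function tests: hepatic side effect score for raised liver function tests, as recorded in the DILIps training set used for predicting drug-induced liver injury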; on HepSE hepatic failure: call rule not given here;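 on HepSE hepatomegaly: hepatic side effect score for hepatomegaly, taken from the training set of the DILIps drug-induced liver injury prediction system; call rule not given here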;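 on HepSE liver fatty: hepatic side effect score for fatty liver, taken from the DILIps training set for predicting drug-induced liver injury; call rule not given here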
Hepatotoxicity [3] = tested on: Hepatotoxicity; remark: listed apart in the source;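 on HepSE bilirubinemia: bilirubinemia hepatic side effect score drawn from the DILIps training data, a prediction system for drug-induced liver injury; call rule not given here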;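 on HepSE cholecystitis: Cholecystitis-related hepatic side effect score drawn from the DILIps (drug-induced liver injury prediction) training data set; call rule not given here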;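 on HepSE elevated liver function tests: hepatic side effect score for raised liver function tests, as recorded in the DILIps training set used for predicting drug-induced liver injury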; on HepSE hepatic failure: call rule not given here;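 on HepSE hepatomegaly: hepatic side effect score for hepatomegaly, taken from the training set of the DILIps drug-induced liver injury prediction system; call rule not given here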;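 on HepSE liver fatty: hepatic side effect score for fatty liver, taken from the DILIps training set for predicting drug-induced liver injury; call rule not given here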
Hepatotoxicity [4] = tested on: Hepatotoxicity; remark: listed apart in the source;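 on HepSE bilirubinemia: bilirubinemia hepatic side effect score drawn from the DILIps training data, a prediction system for drug-induced liver injury; call rule not given here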;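 on HepSE cholecystitis: Cholecystitis-related hepatic side effect score drawn from the DILIps (drug-induced liver injury prediction) training data set; call rule not given here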;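 on HepSE elevated liver function tests: hepatic side effect score for raised liver function tests, as recorded in the DILIps training set used for predicting drug-induced liver injury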; on HepSE hepatic failure: call rule not given here;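 on HepSE hepatomegaly: hepatic side effect score for hepatomegaly, taken from the training set of the DILIps drug-induced liver injury prediction system; call rule not given here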;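 on HepSE liver fatty: hepatic side effect score for fatty liver, taken from the DILIps training set for predicting drug-induced liver injury; call rule not given here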
Hepatotoxicity [5] = tested on: Hepatotoxicity; remark: listed apart in the source; on HepSE hepatic failure: call rule not given here
Hepatotoxicity [6] = tested on: Hepatotoxicity; remark: listed apart in the source; on HepSE hepatic failure: call rule not given here
Hepatotoxicity [7] = tested on: Hepatotoxicity; remark: listed apart in the source
Hepatotoxicity [8] = tested on: Hepatotoxicity; remark: listed apart in the source
Hepatotoxicity [9] = tested on: Hepatotoxicity; remark: listed apart in the source
Hepatotoxicity [10] = tested on: Hepatotoxicity; remark: listed apart in the source
Hepatotoxicity [11] = tested on: Hepatotoxicity; remark: listed apart in the source
Hepatotoxicity [12] = tested on: Hepatotoxicity; remark: listed apart in the source
Hepatotoxicity [13] = tested on: Hepatotoxicity; remark: listed apart in the source
Hepatotoxicity [14] = tested on: Hepatotoxicity; remark: listed apart in the source

Row | Structure (SMILES) | HepSE_elevated liver function tests (Hepatotoxicity [1]) | HepSE_bilirubinemia (Hepatotoxicity [2]) | HepSE_hepatic necrosis (Hepatotoxicity [3]) | HepSE_cholecystitis (Hepatotoxicity [4]) | HepSE_hepatitis (Hepatotoxicity [5]) | HepSE_liver fatty (Hepatotoxicity [6]) | HepSE_hepatic failure (Hepatotoxicity [7]) | HepSE_hepatomegaly (Hepatotoxicity [8]) | HepSE_Combined Scores (Hepatotoxicity [9]) | HepSE_liver function tests abnormal (Hepatotoxicity [10]) | HepSE_cholelithiasis (Hepatotoxicity [11]) | HepSE_cirrhosis (Hepatotoxicity [12]) | HepSE_jaundice (Hepatotoxicity [13]) | HepSE_liver disease (Hepatotoxicity [14]) | other results
1 | O=C(O)O [BICARBONATE] | – | – | – | – | – | – | – | – | – | – | – | – | – | – | HepSE_elevated liver function tests (Hepatotoxicity [1]; Liver): 0; HepSE_bilirubinemia (Hepatotoxicity [2]; Liver): 0; HepSE_hepatic necrosis (Hepatotoxicity [3]; Liver): 0; HepSE_cholecystitis (Hepatotoxicity [4]; Liver): 0; HepSE_hepatitis (Hepatotoxicity [5]; Liver): 0; HepSE_liver fatty (Hepatotoxicity [6]; Liver): 0; HepSE_hepatic failure (Hepatotoxicity [7]; Liver): 0; HepSE_hepatomegaly (Hepatotoxicity [8]; Liver): 0; HepSE_Combined Scores (Hepatotoxicity [9]; Liver): 0; HepSE_liver function tests abnormal (Hepatotoxicity [10]; Liver): 0; HepSE_cholelithiasis (Hepatotoxicity [11]; Liver): 0; HepSE_cirrhosis (Hepatotoxicity [12]; Liver): 0; HepSE_jaundice (Hepatotoxicity [13]; Liver): 0; HepSE_liver disease (Hepatotoxicity [14]; Liver): 0
2 | CCNC(=O)CCC/C=C\C[C@@H]1[C@@H](/C=C/[C@@H](O)CCc2ccccc2)[C@H](O)C[C@@H]1O [BIMATOPROST] | 0 | 0 | 0 | 0 | 0 | 0 | 0 | 0 | 1 | 1 | 0 | 0 | 0 | 0 | –
3 | OC(CCN1CCCCC1)(c1ccccc1)C1CC2C=CC1C2 (stereo not drawn) [BIPERIDEN] | 0 | 0 | 0 | 0 | 0 | 0 | 0 | 0 | 0 | 0 | 0 | 0 | 0 | 0 | –
4 | CC(C)NCC(O)COc1ccc(COCCOC(C)C)cc1 (stereo not drawn) [BISOPROLOL] | 0 | 0 | 0 | 0 | 0 | 0 | 0 | 0 | 0 | 0 | 0 | 0 | 0 | 0 | –
5 | CC(C)C[C@H](NC(=O)[C@H](Cc1ccccc1)NC(=O)c1cnccn1)B(O)O [BORTEZOMIB] | – | – | – | – | – | – | – | – | – | – | – | – | – | – | HepSE_elevated liver function tests (Hepatotoxicity [1]; Liver): 0; HepSE_bilirubinemia (Hepatotoxicity [2]; Liver): 1; HepSE_hepatic necrosis (Hepatotoxicity [3]; Liver): 0; HepSE_cholecystitis (Hepatotoxicity [4]; Liver): 0; HepSE_hepatitis (Hepatotoxicity [5]; Liver): 1; HepSE_liver fatty (Hepatotoxicity [6]; Liver): 0; HepSE_hepatic failure (Hepatotoxicity [7]; Liver): 1; HepSE_hepatomegaly (Hepatotoxicity [8]; Liver): 0; HepSE_Combined Scores (Hepatotoxicity [9]; Liver): 3; HepSE_liver function tests abnormal (Hepatotoxicity [10]; Liver): 0; HepSE_cholelithiasis (Hepatotoxicity [11]; Liver): 0; HepSE_cirrhosis (Hepatotoxicity [12]; Liver): 0; HepSE_jaundice (Hepatotoxicity [13]; Liver): 0; HepSE_liver disease (Hepatotoxicity [14]; Liver): 0
6 | COc1ccccc1Oc1c(NS(=O)(=O)c2ccc(C(C)(C)C)cc2)nc(-c2ncccn2)nc1OCCO [BOSENTAN] | 0 | 0 | 0 | 0 | 1 | 0 | 1 | 0 | 4 | 0 | 0 | 1 | 1 | 0 | –
7 | CC[N+](C)(C)Cc1ccccc1Br [BRETYLIUM] | 0 | 0 | 0 | 0 | 0 | 0 | 0 | 0 | 0 | 0 | 0 | 0 | 0 | 0 | –
8 | Brc1c(NC2=NCCN2)ccc2nccnc12 [BRIMONIDINE] | – | – | – | – | – | – | – | – | – | – | – | – | – | – | HepSE_elevated liver function tests (Hepatotoxicity [1]; Liver): 0; HepSE_bilirubinemia (Hepatotoxicity [2]; Liver): 0; HepSE_hepatic necrosis (Hepatotoxicity [3]; Liver): 0; HepSE_cholecystitis (Hepatotoxicity [4]; Liver): 0; HepSE_hepatitis (Hepatotoxicity [5]; Liver): 0; HepSE_liver fatty (Hepatotoxicity [6]; Liver): 0; HepSE_hepatic failure (Hepatotoxicity [7]; Liver): 0; HepSE_hepatomegaly (Hepatotoxicity [8]; Liver): 0; HepSE_Combined Scores (Hepatotoxicity [9]; Liver): 0; HepSE_liver function tests abnormal (Hepatotoxicity [10]; Liver): 0; HepSE_cholelithiasis (Hepatotoxicity [11]; Liver): 0; HepSE_cirrhosis (Hepatotoxicity [12]; Liver): 0; HepSE_jaundice (Hepatotoxicity [13]; Liver): 0; HepSE_liver disease (Hepatotoxicity [14]; Liver): 0
9 | CCN[C@H]1CN(CCCOC)S(=O)(=O)c2sc(S(N)(=O)=O)cc21 [BRINZOLAMIDE] | 0 | 0 | 0 | 0 | 0 | 0 | 0 | 0 | 0 | 0 | 0 | 0 | 0 | 0 | –
10 | O=C1CN=C(c2ccccn2)c2cc(Br)ccc2N1 [BROMAZEPAM] | 0 | 0 | 0 | 0 | 0 | 0 | 0 | 0 | 0 | 0 | 0 | 0 | 0 | 0 | –
11 | CC(C)C[C@H]1C(=O)N2CCC[C@H]2[C@]2(O)O[C@](NC(=O)[C@@H]3C=C4c5cccc6[nH]c(Br)c(c56)C[C@H]4N(C)C3)(C(C)C)C(=O)N12 [BROMOCRIPTINE] | 0 | 0 | 0 | 0 | 0 | 0 | 0 | 0 | 0 | 0 | 0 | 0 | 0 | 0 | –
12 | CCCC1O[C@@H]2C[C@H]3[C@@H]4CCC5=CC(=O)C=C[C@]5(C)[C@H]4[C@@H](O)C[C@]3(C)[C@]2(C(=O)CO)O1 (stereo partly drawn) [BUDESONIDE] | 0 | 0 | 0 | 0 | 0 | 0 | 0 | 0 | 0 | 0 | 0 | 0 | 0 | 0 | –
13 | CCCCNc1cc(C(=O)O)cc(S(N)(=O)=O)c1Oc1ccccc1 [BUMETANIDE] | 0 | 0 | 0 | 0 | 0 | 0 | 0 | 0 | 1 | 0 | 0 | 0 | 0 | 1 | –
14 | CCCCN1CCCCC1C(=O)Nc1c(C)cccc1C (stereo not drawn) [BUPIVACAINE] | 0 | 0 | 0 | 0 | 0 | 0 | 0 | 0 | 1 | 0 | 0 | 0 | 0 | 1 | –
15 | CO[C@]12CC[C@@]3(C[C@@H]1[C@](C)(O)C(C)(C)C)[C@H]1Cc4ccc(O)c5c4[C@@]3(CCN1CC1CC1)[C@H]2O5 [BUPRENORPHINE] | 0 | 0 | 0 | 0 | 0 | 0 | 0 | 0 | 0 | 0 | 0 | 0 | 0 | 0 | –
16 | CC(NC(C)(C)C)C(=O)c1cccc(Cl)c1 (stereo not drawn) [BUPROPION] | 0 | 0 | 0 | 0 | 1 | 0 | 0 | 0 | 2 | 0 | 0 | 0 | 1 | 0 | –
17 | CCNC(=O)[C@@H]1CCCN1C(=O)[C@H](CCCNC(=N)N)NC(=O)[C@H](CC(C)C)NC(=O)[C@@H](COC(C)(C)C)NC(=O)[C@H](Cc1ccc(O)cc1)NC(=O)[C@H](CO)NC(=O)[C@H](Cc1c[nH]c2ccccc12)NC(=O)[C@H](Cc1cnc[nH]1)NC(=O)[C@@H]1CCC(=O)N1 [BUSERELIN] | 0 | 0 | 0 | 0 | 0 | 0 | 0 | 0 | 0 | 0 | 0 | 0 | 0 | 0 | –
